Assay results: patent publication US20230143596A1, “PESTICIDALLY ACTIVE DIAZINE-BISAMIDE COMPOUNDS” (SYNGENTA CROP PROTECTION AG, priority 2020, published 2023)

How the values were obtained:
Chilo suppressalis = assay: Example B3: Chilo suppressalis (striped rice stemborer), artificial diet; type: in vivo; conditions: 144 h, application rate 200 ppm, L2 larvae, 6 days after infestation, vs untreated, read-out: control in at least one of the three categories (mortality, anti-feedant effect, or growth inhibition)
Procedure: Example B3: Chilo suppressalis (Striped Rice Stemborer)
24-well microtiter plates with artificial diet were treated with aqueous test solutions prepared from 10′000 ppm DMSO stock solutions by pipetting. After drying, the plates were infested with L2 larvae (6-8 per well). The samples were assessed for mortality, anti-feeding effect, and growth inhibition in comparison to untreated samples 6 days after infestation. Control of Chilo suppressalis by a test sample is given when at least one of the categories mortality, anti-feedant effect, and growth inhibition is higher than the untreated sample.

Plutella xylostella = assay: Example B4: Plutella xylostella (diamond back moth), artificial diet; type: in vivo; conditions: 192 h, application rate 200 ppm, eggs, 8 days after infestation, vs untreated, read-out: control in at least one of the two categories (mortality or growth inhibition)
Procedure: Example B4: Plutella xylostella (Diamond Back Moth)
24-well microtiter plates with artificial diet were treated with aqueous test solutions prepared from 10′000 ppm DMSO stock solutions by pipetting. After drying, Plutella eggs were pipetted through a plastic stencil onto a gel blotting paper and the plate was closed with it. The samples were assessed for mortality and growth inhibition in comparison to untreated samples 8 days after infestation. The following compounds gave an effect of at least 80% control in at least one of the two categories (mortality or growth inhibition) at an application rate of 200 ppm: […]

Euschistus heros = assay: Example B2: Euschistus heros (neotropical brown stink bug), soybean leaves sprayed; type: in vivo; conditions: 120 h, application rate 200 ppm, N2 nymphs, 5 days after infestation, vs untreated, read-out: control in at least one of the two categories (mortality or growth inhibition)
Procedure: Example B2: Euschistus heros (Neotropical Brown Stink Bug)
Soybean leaves on agar in 24-well microtiter plates were sprayed with aqueous test solutions prepared from 10′000 ppm DMSO stock solutions. After drying the leaves were infested with N2 nymphs. The samples were assessed for mortality and growth inhibition in comparison to untreated samples 5 days after infestation.
(§1) The following compounds gave an effect of at least 80% control in at least one of the two categories (mortality or growth inhibition) at an application rate of 200 ppm: […]

Spodoptera littoralis = assay: Example B6: Spodoptera littoralis (Egyptian cotton leaf worm), cotton leaf discs sprayed; type: in vivo; conditions: foliar, 72 h, application rate 200 ppm, L1 larvae, 3 days after infestation, vs untreated, read-out: control in at least one of the three categories (mortality, anti-feedant effect, or growth inhibition)
Procedure: Example B6: Spodoptera littoralis (Egyptian Cotton Leaf Worm)
Cotton leaf discs were placed onto agar in 24-well microtiter plates and sprayed with aqueous test solutions prepared from 10′000 ppm DMSO stock solutions. After drying the leaf discs were infested with five L1 larvae. The samples were assessed for mortality, anti-feeding effect, and growth inhibition in comparison to untreated samples 3 days after infestation. Control of Spodoptera littoralis by a test sample is given when at least one of the categories mortality, anti-feedant effect, and growth inhibition is higher than the untreated sample.

Diabrotica balteata = assay: Example B1: Diabrotica balteata (corn root worm), maize sprouts sprayed; type: in vivo; conditions: 96 h, application rate 200 ppm, L2 larvae, 4 days after infestation, vs untreated, read-out: control in at least one of the two categories (mortality or growth inhibition)
Procedure: Example B1: Diabrotica balteata (Corn Root Worm)
Maize sprouts placed onto an agar layer in 24-well microtiter plates were treated with aqueous test solutions prepared from 10′000 ppm DMSO stock solutions by spraying. After drying, the plates were infested with L2 larvae (6 to 10 per well). The samples were assessed for mortality and growth inhibition in comparison to untreated samples 4 days after infestation.
as §1

Compound	melting point [°C]	also measured
CCNC(=O)c1nccnc1C(C)NC(=O)c1cc(C(F)(F)F)cc(C(F)(F)F)c1 (stereo not shown) [Compound P1, 3-[1-[[3,5-bis(trifluoromethyl)benzoyl]amino]ethyl]-N-ethyl-pyrazine-2-carboxamide]	–	percent control (mortality, anti-feedant effect or growth inhibition) at 200 ppm (Chilo suppressalis): ≥ 80%; percent control (mortality or growth inhibition) at 200 ppm (Plutella xylostella): ≥ 80%; percent control (mortality or growth inhibition) at 200 ppm (Euschistus heros): ≥ 80%; percent control (mortality, anti-feedant effect or growth inhibition) at 200 ppm (Spodoptera littoralis): ≥ 80%; percent control (mortality or growth inhibition) at 200 ppm (Diabrotica balteata): ≥ 80%
CCCCNC(=O)c1nccnc1C(C)NC(=O)c1cc(C(F)(F)F)cc(C(F)(F)F)c1 (stereo not shown) [Compound P3, 3-[1-[[3,5-bis(trifluoromethyl)benzoyl]amino]ethyl]-N-butyl-pyrazine-2-carboxamide]	–	percent control (mortality, anti-feedant effect or growth inhibition) at 200 ppm (Chilo suppressalis): ≥ 80%
CC(NC(=O)c1cc(C(F)(F)F)cc(C(F)(F)F)c1)c1nccnc1C(=O)NC1CC1 (stereo not shown) [Compound P5, 3-[1-[[3,5-bis(trifluoromethyl)benzoyl]amino]ethyl]-N-cyclopropyl-pyrazine-2-carboxamide]	–	percent control (mortality, anti-feedant effect or growth inhibition) at 200 ppm (Chilo suppressalis): ≥ 80%; percent control (mortality or growth inhibition) at 200 ppm (Plutella xylostella): ≥ 80%; percent control (mortality, anti-feedant effect or growth inhibition) at 200 ppm (Spodoptera littoralis): ≥ 80%
C=CCNC(=O)c1nccnc1C(C)NC(=O)c1cc(C(F)(F)F)cc(C(F)(F)F)c1 (stereo not shown) [Compound P6, N-allyl-3-[1-[[3,5-bis(trifluoromethyl)benzoyl]amino]ethyl]pyrazine-2-carboxamide]	–	percent control (mortality, anti-feedant effect or growth inhibition) at 200 ppm (Chilo suppressalis): ≥ 80%; percent control (mortality or growth inhibition) at 200 ppm (Plutella xylostella): ≥ 80%
CCCNC(=O)c1nccnc1C(C)NC(=O)c1cc(C(F)(F)F)cc(C(F)(F)F)c1 (stereo not shown) [P.2, 3-[1-[[3,5-bis(trifluoromethyl)benzoyl]amino]ethyl]-N-propyl-pyrazine-2-carboxamide]	127	–
COCCNC(=O)c1nccnc1C(C)NC(=O)c1cc(C(F)(F)F)cc(C(F)(F)F)c1 (stereo not shown) [P.4, 3-[1-[[3,5-bis(trifluoromethyl)benzoyl]amino]ethyl]-N-(2-methoxyethyl)pyrazine-2-carboxamide]	128	–
CC(NC(=O)c1cc(C(F)(F)F)cc(C(F)(F)F)c1)c1nccnc1C(=O)Nc1ncccn1 (stereo not shown) [P.7, 3-[1-[[3,5-bis(trifluoromethyl)benzoyl]amino]ethyl]-N-pyrimidin-2-yl-pyrazine-2-carboxamide]	201	–
CCNC(=O)c1nccnc1C(C)NC(=O)c1cc(OCC(F)(F)F)cc(C(F)(F)F)c1 (stereo not shown) [P.8, N-ethyl-3-[1-[[3-(2,2,2-trifluoroethoxy)-5-(trifluoromethyl)benzoyl]amino]ethyl]pyrazine-2-carboxamide]	136	–
CCNC(=O)c1nccnc1C(C)NC(=O)c1cc(OCC(F)F)cc(C(F)(F)F)c1 (stereo not shown) [P.9, 3-[1-[[3-(2,2-difluoroethoxy)-5-(trifluoromethyl)benzoyl]amino]ethyl]-N-ethyl-pyrazine-2-carboxamide]	134	–
CC(NC(=O)c1cc(C(F)(F)F)cc(C(F)(F)F)c1)c1nccnc1C(=O)Nc1ccc(C#N)cn1 (stereo not shown) [P.10, 3-[1-[[3,5-bis(trifluoromethyl)benzoyl]amino]ethyl]-N-(5-cyano-2-pyridyl)pyrazine-2-carboxamide]	215	–
CC(NC(=O)c1cc(C(F)(F)F)cc(C(F)(F)F)c1)c1nccnc1C(=O)NCC#N (stereo not shown) [P.11, 3-[1-[[3,5-bis(trifluoromethyl)benzoyl]amino]ethyl]-N-(cyanomethyl)pyrazine-2-carboxamide]	193	–
CC(NC(=O)c1cc(C(F)(F)F)cc(C(F)(F)F)c1)c1nccnc1C(=O)Nc1ccc(C#N)cc1 (stereo not shown) [P.12, 3-[1-[[3,5-bis(trifluoromethyl)benzoyl]amino]ethyl]-N-(4-cyanophenyl)pyrazine-2-carboxamide]	241	–
CCN(C)C(=O)c1nccnc1C(C)NC(=O)c1cc(C(F)(F)F)cc(C(F)(F)F)c1 (stereo not shown) [P.13, 3-[1-[[3,5-bis(trifluoromethyl)benzoyl]amino]ethyl]-N-ethyl-N-methyl-pyrazine-2-carboxamide]	75	–
CC(NC(=O)c1cc(C(F)(F)F)cc(C(F)(F)F)c1)c1nccnc1C(=O)N1CCOCC1 (stereo not shown) [P.14, N-[1-[3-(morpholine-4-carbonyl)pyrazin-2-yl]ethyl]-3,5-bis(trifluoromethyl)benzamide]	81	–
CC(NC(=O)c1cc(C(F)(F)F)cc(C(F)(F)F)c1)c1nccnc1C(=O)NC(C)(C)C#N (stereo not shown) [P.15, 3-[1-[[3,5-bis(trifluoromethyl)benzoyl]amino]ethyl]-N-(1-cyano-1-methyl-ethyl)pyrazine-2-carboxamide]	195	–
CC(NC(=O)c1cc(C(F)(F)F)cc(C(F)(F)F)c1)c1nccnc1C(=O)NC1(C#N)CC1 (stereo not shown) [P.16, 3-[1-[[3,5-bis(trifluoromethyl)benzoyl]amino]ethyl]-N-(1-cyanocyclopropyl)pyrazine-2-carboxamide]	123	–
COCC(C)(C)NC(=O)c1nccnc1C(C)NC(=O)c1cc(C(F)(F)F)cc(C(F)(F)F)c1 (stereo not shown) [P.17, 3-[1-[[3,5-bis(trifluoromethyl)benzoyl]amino]ethyl]-N-(2-methoxy-1,1-dimethyl-ethyl)pyrazine-2-carboxamide]	132	–
COCC(C)NC(=O)c1nccnc1C(C)NC(=O)c1cc(C(F)(F)F)cc(C(F)(F)F)c1 (stereo not shown) [P.18, 3-[1-[[3,5-bis(trifluoromethyl)benzoyl]amino]ethyl]-N-(2-methoxy-1-methyl-ethyl)pyrazine-2-carboxamide]	127	–
CNC(=O)c1nccnc1C(C)NC(=O)c1cc(C(F)(F)F)cc(C(F)(F)F)c1 (stereo not shown) [P.19, 3-[1-[[3,5-bis(trifluoromethyl)benzoyl]amino]ethyl]-N-methyl-pyrazine-2-carboxamide]	164	–
CC(NC(=O)c1cc(C(F)(F)F)cc(C(F)(F)F)c1)c1nccnc1C(=O)NC1COC1 (stereo not shown) [P.20, 3-[1-[[3,5-bis(trifluoromethyl)benzoyl]amino]ethyl]-N-(oxetan-3-yl)pyrazine-2-carboxamide]	68	–
CC(NC(=O)c1cc(C(F)(F)F)cc(C(F)(F)F)c1)c1nccnc1C(=O)NCCC#N (stereo not shown) [P.21, 3-[1-[[3,5-bis(trifluoromethyl)benzoyl]amino]ethyl]-N-(2-cyanoethyl) pyrazine-2-carboxamide]	156	–
